Patent US8673906B2, “Chromenone derivatives” (AstraZeneca AB, priority 2010, dated 2014)
Read-outs that look alike come from different tables or passages of the source.

What was measured:
[1] = tested on: phospho AKT (ser473) in MAD-MB-468 cells; assay: Detection of phospho AKT (ser473) in MAD-MB-468 cells; type: cell-based, human; conditions: Test (b)
Method: (b) Protocol for Detection of Phospho AKT (Ser473) in MAD-MB-468 Cells
MDA-MB-468 cells (human breast adenocarcinoma ATCC HTB 132) are seeded into Greiner 384 well black flat-bottomed plates by automated cell culture robot (Selec T). Cells can also be maintained manually and seeded into plates using multidrop or Wellmate. Cells seeded at 1500 cell/well in 40 μl of DMEN containing 10% FCS and 1% glutamine. Cell plates are incubated for 18 hours in a 37° C. incubator.
Compounds are dosed onto cells using an Echo acoustic dispenser, which dispenses nl quantities of compound or DMSO. Compounds are dosed in a 12 point concentration range from 30 μM top dose, 28 compounds are dosed on one plate. There are 17 DMSO only positive control wells per plate, and 16 negative control well which have been dosed with a concentration of reference compound that will knockout the pAKT signal.
Plates are incubated at 37° C. for 2 hours, cells are the fixed by the addition of 10 μl of a 3.7% Formaldehyde solution in a fume cupboard using a Wellmate.
After 30 minutes to allow for fixation, the fixative and media are removed and the plates washed with Proclin PBS/A using Tecan PW384 plate washer in a fume cupboard. Wells are blocked and permeabilised with the addition of 40 μl of PBS containing 0.5% Tween20 and 1% marvel using a Wellmate and incubated for 60 minutes at room temperature.
Permeabilisation and blocking buffer removed using Tecan PW384 plate washer, then 20 μl primary antibody solution added using a Wellmate. The primary antibody solution is a 1:500 dilution of Rabbit anti-phospho AKT Ser 473 (Cell signalling technologies catalogue number #3787) in PBS/T containing 1% marvel (dried milk powder) and incubated overnight at 4° C.
Plates are washed using a Tecan PW384 plate washer three times with Phosphate Buffered Saline+0.05% (v/v) Polysorbate20 and Proclin300 (Supelco). 20 μl of secondary antibody solution is then added to each well using a Wellmate and incubated for 1 hour at Room Temp. The secondary antibody solution is a 1:1000 dilution of Alexa Fluor 488 anti-Rabbit (Molecular Probes cat no A11008) diluted in Phosphate Buffered Saline+0.05% (v/v) Polysorbate20 containing 1% marvel. Plates are washed three times as before then 20 μl PBS added to each well and plates sealed with black plate sealer.
The plates are read on an Acumen reader as soon as possible. Using this system IC50 values can be generated and quality of plates determined by control wells. Reference compounds are run each time to monitor assay performance.

PI3Kβ = PI3Kβ (Homo sapiens (Human), UniProt P42338); assay: In vitro enzyme inhibition assay (Kinase Glo based enzyme activity assay); type: biochemical; conditions: Test (a)
In short: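 ATP depletion by recombinant human PI3Kβ measured with Kinase-Glo luminescence after an 80 min reaction (final 80 μM ATP, 80 μM PIP2, 1% DMSO) in Tris pH 7.4 buffer with CHAPS, DTT and MgCl2, following 20 min enzyme–compound preincubation. Twelve concentrations fitted by non-linear regression for IC50.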

[2] = Homo sapiens, approximate value, read-out: IC50 versus cellular phospho AKT (ser473) in MAD-MB-468 cells
[3] = Homo sapiens, mean IC50 value calculated from a larger number of replicates, read-out: IC50 versus cellular phospho AKT (ser473) in MAD-MB-468 cells (value in brackets)
[4] = approximate value, read-out: IC50 versus PI3Kβ
[5] = human recombinant enzyme, read-out: PI3Kβ inhibition, IC50
[6] = approximate value, read-out: IC50 versus cellular phospho AKT (ser473) in MAD-MB-468 cells

PI3Kβ, sequence (P42338 whole entry): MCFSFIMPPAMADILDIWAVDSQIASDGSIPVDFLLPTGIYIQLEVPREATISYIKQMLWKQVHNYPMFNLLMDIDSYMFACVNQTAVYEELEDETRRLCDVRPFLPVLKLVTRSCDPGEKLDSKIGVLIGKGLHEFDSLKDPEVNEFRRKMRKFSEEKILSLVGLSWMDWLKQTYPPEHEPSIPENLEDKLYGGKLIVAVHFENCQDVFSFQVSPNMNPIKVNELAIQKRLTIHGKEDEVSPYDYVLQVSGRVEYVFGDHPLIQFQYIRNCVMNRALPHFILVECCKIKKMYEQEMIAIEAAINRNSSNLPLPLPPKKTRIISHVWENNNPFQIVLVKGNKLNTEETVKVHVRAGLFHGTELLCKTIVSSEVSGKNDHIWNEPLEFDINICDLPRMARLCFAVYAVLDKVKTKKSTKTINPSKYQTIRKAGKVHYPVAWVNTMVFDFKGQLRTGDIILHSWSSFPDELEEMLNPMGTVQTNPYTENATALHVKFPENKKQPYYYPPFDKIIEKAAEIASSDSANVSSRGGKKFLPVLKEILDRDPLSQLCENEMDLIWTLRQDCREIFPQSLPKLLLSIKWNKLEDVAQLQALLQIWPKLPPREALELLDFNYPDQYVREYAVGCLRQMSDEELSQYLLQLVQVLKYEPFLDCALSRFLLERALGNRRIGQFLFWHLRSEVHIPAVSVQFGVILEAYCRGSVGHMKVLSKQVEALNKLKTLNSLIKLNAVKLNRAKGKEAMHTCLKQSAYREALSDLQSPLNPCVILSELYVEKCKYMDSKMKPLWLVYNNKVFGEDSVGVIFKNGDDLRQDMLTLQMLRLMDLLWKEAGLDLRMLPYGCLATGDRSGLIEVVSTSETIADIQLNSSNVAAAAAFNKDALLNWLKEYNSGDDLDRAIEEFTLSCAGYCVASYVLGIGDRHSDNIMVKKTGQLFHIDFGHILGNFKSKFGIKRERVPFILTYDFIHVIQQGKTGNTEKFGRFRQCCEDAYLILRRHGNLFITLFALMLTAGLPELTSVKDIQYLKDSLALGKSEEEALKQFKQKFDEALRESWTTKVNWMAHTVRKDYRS
PI3Kβ, sequence (P27986 whole entry partner): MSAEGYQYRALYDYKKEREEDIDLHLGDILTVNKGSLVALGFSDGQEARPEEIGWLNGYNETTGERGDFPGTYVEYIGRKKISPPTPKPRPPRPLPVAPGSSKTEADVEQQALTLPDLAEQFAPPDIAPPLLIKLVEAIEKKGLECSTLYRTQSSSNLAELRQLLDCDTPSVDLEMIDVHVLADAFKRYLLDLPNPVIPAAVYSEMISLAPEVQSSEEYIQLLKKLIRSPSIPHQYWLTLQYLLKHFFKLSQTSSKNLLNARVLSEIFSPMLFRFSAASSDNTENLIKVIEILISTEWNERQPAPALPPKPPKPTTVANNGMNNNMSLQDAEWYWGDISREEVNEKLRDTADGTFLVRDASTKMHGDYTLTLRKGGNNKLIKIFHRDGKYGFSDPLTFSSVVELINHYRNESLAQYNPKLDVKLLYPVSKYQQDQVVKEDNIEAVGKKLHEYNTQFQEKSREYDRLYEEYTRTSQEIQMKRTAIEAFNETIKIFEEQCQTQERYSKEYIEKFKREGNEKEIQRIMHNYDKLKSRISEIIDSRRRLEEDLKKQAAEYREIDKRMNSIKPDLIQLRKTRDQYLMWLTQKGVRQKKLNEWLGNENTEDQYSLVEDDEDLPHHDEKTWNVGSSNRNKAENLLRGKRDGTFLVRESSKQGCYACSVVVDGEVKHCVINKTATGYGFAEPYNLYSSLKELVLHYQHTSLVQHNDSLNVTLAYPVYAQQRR

Row | IC50 [1, 2] [nM] | IC50 [1, 3] [nM] | IC50 (PI3Kβ; [4]) [nM] | IC50 (PI3Kβ; [5]) [nM] | IC50 [1, 6] [nM] | SMILES
1 | ~35 | ~37 | ~9 | 9 |  | CC(Nc1ccc(F)c(F)c1)c1cc(C(=O)N(C)C)cc2c(=O)cc(N3CCOCC3)oc12 (racemic) [Example 3.03, 8-(1-(3,4-difluorophenylamino)ethyl)-N,N-dimethyl-2-morpholino-4-oxo-4H-chromene-6-carboxamide]
2 | ~12 |  | ~11 | 11 |  | CC(Nc1cccc(Cl)c1F)c1cc(C(=O)N(C)C)cc2c(=O)cc(N3CCOCC3)oc12 (racemic) [Example 3.04, 8-(1-(3-chloro-2-fluorophenylamino)ethyl)-N,N-dimethyl-2-morpholino-4-oxo-4H-chromene-6-carboxamide]
3 | ~9 |  |  |  |  | CC(Nc1cc(F)cc(F)c1)c1cc(C(=O)N(C)C)cc2c(=O)cc(N3CCOCC3)oc12 (racemic) [Example 3.06, 8-(1-(3,5-difluorophenylamino)ethyl)-N,N-dimethyl-2-morpholino-4-oxo-4H-chromene-6-carboxamide]
4 |  |  |  |  | ~13500 | CC(Nc1cc(F)cc(F)c1)c1cc(C(=O)N(C)C)cc2c(=O)cc(N3CCOCC3)oc12 (single isomer, unassigned) [Example 3.06a, 8-(1-(3,5-difluorophenylamino)ethyl)-N,N-dimethyl-2-morpholino-4-oxo-4H-chromene-6-carboxamide]
5 | ~4300 |  | ~4500 | 4540 |  | CC(Nc1cc(F)cc(F)c1F)c1cc(C(=O)N(C)C)cc2c(=O)cc(N3CCOCC3)oc12 (single isomer, unassigned) [Example 3.13a, N,N-dimethyl-2-morpholino-4-oxo-8-(1-(2,3,5-trifluorophenylamino)ethyl)-4H-chromene-6-carboxamide]
6 | ~15 |  |  |  |  | CC(c1cc(C(=O)N(C)C)cc2c(=O)cc(N3CCOCC3)oc12)N(C)c1cc(F)cc(F)c1 (single isomer, unassigned) [Example 5.0a, 8-(1-((3,5-difluorophenyl)(methyl)amino)ethyl)-N,N-dimethyl-2-morpholino-4-oxo-4H-chromene-6-carboxamide]
7 |  | ~3 |  |  | ~5 | CC(Nc1cc(F)cc(F)c1)c1cc(C(=O)N(C)C)cc2c(=O)cc(N3CCOCC3)oc12 (single isomer, unassigned; (-)) [Example 3.06b, (−)-8-(1-(3,5-difluorophenylamino)ethyl)-N,N-dimethyl-2-morpholino-4-oxo-4H-chromene-6-carboxamide]
8 | ~9 |  | ~2 | 2 |  | CC(Nc1ccc(F)cc1)c1cc(C(=O)NCCN(C)C)cc2c(=O)cc(N3CCOCC3)oc12 (stereo not shown) [Example 1.00, N-(2-(dimethylamino)ethyl)-8-(1-(4-fluorophenylamino)ethyl)-2-morpholino-4-oxo-4H-chromene-6-carboxamide]
9 | ~17 |  | ~5 | 5 |  | CC(Nc1cccc(Cl)c1F)c1cc(C(=O)N(C)CCO)cc2c(=O)cc(N3CCOCC3)oc12 (stereo not shown) [Example 2.05, 8-(1-(3-chloro-2-fluorophenylamino)ethyl)-N-(2-hydroxyethyl)-N-methyl-2-morpholino-4-oxo-4H-chromene-6-carboxamide]
10 | ~27 |  |  |  |  | CC(Nc1cc(F)c(F)c(F)c1)c1cc(C(=O)N(C)C)cc2c(=O)cc(N3CCOCC3)oc12 (stereo not shown) [Example 3.11, N,N-dimethyl-2-morpholino-4-oxo-8-(1-(3,4,5-trifluorophenylamino)ethyl)-4H-chromene-6-carboxamide]
11 | ~1 | ~2 | ~4 | 4 |  | CC(Nc1cc(F)cc(F)c1)c1cc(C(=O)N2CCCC2)cc2c(=O)cc(N3CCOCC3)oc12 (stereo not shown) [Example 4.02, 8-(1-(3,5-difluorophenylamino)ethyl)-2-morpholino-6-(pyrrolidine-1-carbonyl)-4H-chromen-4-one]

Row | SMILES | IC50 [1, 2] [nM] | IC50 [1, 3] [nM] | IC50 (PI3Kβ; [4]) [nM] | IC50 (PI3Kβ; [5]) [nM] | IC50 [1, 6] [nM]
12 | CC(c1cc(C(=O)N(C)C)cc2c(=O)cc(N3CCOCC3)oc12)N(C)c1ccc(F)cc1 (stereo not shown) [Example 3.07, 8-(1-((4-fluorophenyl)(methyl)amino)ethyl)-N,N-dimethyl-2-morpholino-4-oxo-4H-chromene-6-carboxamide] | ~580 |  | ~29 |  | 
